A short description of the data set: in vitro. The following applies: rat, gh3-tre-luc cells.

Each structure is given as a SMILES string. Counter-ions that a name gives are not always drawn. Bounds are passed on as bounds.

As for `C[C@]12CC[C@@H]3c4ccc(O)cc4CC[C@H]3[C@@H]1CC[C@H]2O` [17alpha-Estradiol], the CC50 at 24 h (AC50 (uM) modified / 1000) is more than 90 µM. Still for that read-out and setting: the value for `CS(=O)(=O)OCCCCOS(C)(=O)=O` [Busulfan] was more than 90 µM. Same read-out and setting: the value for `CC(C)NCC(O)COc1ccc(CCOCC2CC2)cc1` (centres unmarked) [Betaxolol] was more than 50 µM. In the case of `FC(F)OC(F)(F)C(F)Cl` (centres unmarked) [Enflurane], the CC50 at 24 h by setting is: (AC50 (uM) modified / 1000, Tox21_110001=Tox21_112426, viability, 1 nM T3 present, 24 h) more than 50 µM; (AC50 (uM) modified / 1000, Tox21_110001=Tox21_200166, viability, 1 nM T3 present, 24 h) more than 90 µM. Under “AC50 (uM) modified / 1000”, `c1ccc(CNCCNCc2ccccc2)cc1` [N,N'-Dibenzylethane-1,2-diamine dihydrochloride] showed a half-maximal cytotoxic concentration (CC50) at 24 h of more than 50 µM. Where the note is “AC50 (uM) modified / 1000”, `OC[C@H]1O[C@@H]2O[C@H]3[C@H](O)[C@@H](O)[C@@H](O[C@H]4[C@H](O)[C@@H](O)[C@@H](O[C@H]5[C@H](O)[C@@H](O)[C@@H](O[C@H]6[C@H](O)[C@@H](O)[C@@H](O[C@H]7[C@H](O)[C@@H](O)[C@@H](O[C@H]8[C@H](O)[C@@H](O)[C@@H](O[C@H]1[C@H](O)[C@H]2O)O[C@@H]8CO)O[C@@H]7CO)O[C@@H]6CO)O[C@@H]5CO)O[C@@H]4CO)O[C@@H]3CO` [beta-Cyclodextrin] yielded a cytotoxic concentration (CC50) at 24 h of more than 90 µM. As for `CCC(C)c1ccccc1O` (centres unmarked) [2-(Butan-2-yl)phenol], the cytotoxic concentration (CC50) at 24 h (AC50 (uM) modified / 1000) was more than 90 µM. The same measure, in the same setting: the value for `CCN(Cc1cccc(S(=O)(=O)O)c1)c1ccc(C(=C2C=CC(=[N+](CC)Cc3cccc(S(=O)(=O)O)c3)C=C2)c2ccccc2S(=O)(=O)[O-])cc1` [FD&C Blue No. 1] was 50.7 µM. The same measure, in the same setting: the value for `C[C@H]1C[C@H]2[C@@H]3CCC4=CC(=O)C=C[C@]4(C)[C@@]3(Cl)[C@@H](O)C[C@]2(C)[C@@]1(O)C(=O)CO` [Beclomethasone] was more than 50 µM; that for `CC(C)CCCCCOC(=O)COc1ccc(Cl)cc1Cl` [2,4-D isooctyl ester] was more than 90 µM. In the case of `Cc1cc(O)cc2c1O[C@](C)(CCC[C@H](C)CCC[C@H](C)CCCC(C)C)CC2` [D-delta-Tocopherol], for the setting “AC50 (uM) modified / 1000”, the half-maximal cytotoxic concentration (CC50) at 24 h is more than 50 µM.

The compound `CN(C)C(=O)C(c1ccccc1)c1ccccc1` [Diphenamid] registered a CC50 at 24 h (AC50 (uM) modified / 1000) of more than 90 µM. Same read-out and setting: the same measure for `CCOC(=O)c1cnc2cc(OCC(C)C)c(OCC(C)C)cc2c1O` [Buquinolate]: more than 50 µM. Turning to `CN[C@@H](C)Cc1ccccc1` [S-(+)-Methamphetamine hydrochloride], the CC50 at 24 h (AC50 (uM) modified / 1000) was more than 90 µM.

For `CCNC(C)Cc1cccc(C(F)(F)F)c1` (centres unmarked) [Fenfluramine], the CC50 at 24 h (AC50 (uM) modified / 1000, Tox21_110001=Tox21_111697, viability, 1 nM T3 present, 24 h) was more than 50 µM. Under “AC50 (uM) modified / 1000”, `CC1(C)C(/C=C(\Cl)C(F)(F)F)C1C(=O)OC(C#N)c1cccc(Oc2ccccc2)c1` (stereo not drawn) [alpha-Cyhalothrin] came in with a CC50 at 24 h of more than 90 µM. The same measure, in the same setting: the same measure for `O=C(O)c1cc(O)c2c(c1)[C@H]([C@H]1c3cc(C(=O)O)cc(O)c3C(=O)c3c(O[C@@H]4O[C@H](CO)[C@@H](O)[C@H](O)[C@H]4O)cccc31)c1cccc(O[C@@H]3O[C@H](CO)[C@@H](O)[C@H](O)[C@H]3O)c1C2=O` [Sennoside A]: more than 50 µM; for `CC(C)CCCC(C)NC(C)C` (centres unmarked) [Iproheptine]: more than 50 µM. In the case of `Cc1c(I)c(=O)n(-c2ccccc2)n1C` [Iodoantipyrine], under “AC50 (uM) modified / 1000”, the CC50 at 24 h is more than 50 µM.

The compound `C=COCCOCCOC=C` [{2-[2-(Ethenyloxy)ethoxy]ethoxy}ethene] registered a CC50 at 24 h (AC50 (uM) modified / 1000) of more than 90 µM. `CCCCCC/C=C/C(=O)OC` [Methyl (2E)-2-nonenoate] yielded a 50% cytotoxic concentration (CC50) at 24 h (AC50 (uM) modified / 1000) of more than 90 µM. Still for that read-out and setting: the value for `CC1(C)CCC(Cc2ccc(Cl)cc2)C1(O)Cn1cncn1` (centres unmarked) [Metconazole] was 82.6 µM; that for `Oc1cc(Cl)c(Cl)c(Cl)c1` [3,4,5-Trichlorophenol] was 29.9 µM; that for `CSc1c(Cl)c(Cl)c(Cl)c(Cl)c1Cl` [Pentachlorothioanisole] was 81.6 µM. Where the note is “AC50 (uM) modified / 1000”, `Cc1ccccc1C(N)=O` [2-Methylbenzamide] yielded a CC50 at 24 h of more than 90 µM.

The compound `NC(=O)C[S+]([O-])C(c1ccccc1)c1ccccc1` (centres unmarked) [Modafinil] registered a cytotoxic concentration (CC50) at 24 h (AC50 (uM) modified / 1000, Tox21_110001=Tox21_111470, viability, 1 nM T3 present, 24 h) of more than 50 µM.

With `NC(=O)c1ccc([N+](=O)[O-])cc1Cl` [2-Chloro-4-nitrobenzamide], the CC50 at 24 h (AC50 (uM) modified / 1000) is more than 90 µM. Same read-out and setting: the same measure for `Nc1ccc2cc(S(=O)(=O)O)ccc2c1` [6-Aminonaphthalene-2-sulfonic acid]: more than 90 µM; for `CCCOCC(C)O` (centres unmarked) [1-Propoxy-2-propanol]: more than 90 µM; for `NC[C@H]1CC[C@H](C(=O)O)CC1` [Tranexamic acid]: more than 20 µM. Same read-out and setting: the value for `CCCCc1c(C)nc(NCC)nc1OS(=O)(=O)N(C)C` [Bupirimate] was more than 90 µM. Compound `O=C(O)CCCc1ccc(N(CCCl)CCCl)cc1` [Chlorambucil] came in with a CC50 at 24 h (AC50 (uM) modified / 1000) of 61 µM.

On to `CCCOC(=O)c1ccc(N)cc1` [Risocaine], for which the 50% cytotoxic concentration (CC50) at 24 h (AC50 (uM) modified / 1000) was more than 50 µM. Same read-out and setting: the value for `COc1cc(/C=C/C(=O)O[C@H]2CC[C@]34C[C@]35CC[C@]3(C)[C@@H]([C@H](C)CCC=C(C)C)CC[C@@]3(C)[C@@H]5CC[C@H]4C2(C)C)ccc1O` [gamma-Oryzanol] was more than 50 µM; that for `CC(C)(S)C(=O)N[C@@H](CS)C(=O)O` [Bucillamine] was more than 50 µM. Under “AC50 (uM) modified / 1000”, `CC1(O)CSC(C)(O)CS1` (centres unmarked) [2,5-Dimethyl-1,4-dithiane-2,5-diol] returned a half-maximal cytotoxic concentration (CC50) at 24 h of more than 90 µM. In the case of `CCOC1O[C@H]([C@@H](COCc2ccccc2)OCc2ccccc2)[C@H](OCc2ccccc2)[C@H]1O` (some centres unmarked) [Tribenoside], under “AC50 (uM) modified / 1000”, the half-maximal cytotoxic concentration (CC50) at 24 h was more than 20 µM. Consider `CC[C@H]1C[C@H]2[C@@H]3CCC4=CC(=O)CC[C@@H]4[C@H]3CC[C@]2(C)[C@H]1O` [Oxendolone], for which the CC50 at 24 h (AC50 (uM) modified / 1000) is more than 50 µM. For the setting “AC50 (uM) modified / 1000, Tox21_110001=Tox21_112258, viability, 1 nM T3 present, 24 h”, `O=C(C[S+]([O-])C(c1ccccc1)c1ccccc1)NO` (centres unmarked) [Adrafinil] returned a CC50 at 24 h of more than 50 µM. Regarding `OCCc1ccccn1` [2-(Pyridin-2-yl)ethanol], the CC50 at 24 h (AC50 (uM) modified / 1000) was more than 90 µM.

In the case of `O=S(=O)(O)C(F)(F)C(F)(F)C(F)(F)C(F)(F)C(F)(F)C(F)(F)C(F)(F)C(F)(F)F` [Perfluorooctanesulfonic acid], the CC50 at 24 h (AC50 (uM) modified / 1000, Tox21_110001=Tox21_400083, viability, 1 nM T3 present, 24 h) was more than 90 µM. The compound `O=C(CCl)CCl` [1,3-Dichloropropanone] had a 50% cytotoxic concentration (CC50) at 24 h (AC50 (uM) modified / 1000, Tox21_110001=Tox21_201433, viability, 1 nM T3 present, 24 h) of 32.6 µM and a CC50 at 24 h (AC50 (uM) modified / 1000, Tox21_110001=Tox21_302809, viability, 1 nM T3 present, 24 h) of 27.3 µM. `CC(C)Br` [2-Bromopropane]: the CC50 at 24 h (AC50 (uM) modified / 1000, Tox21_110001=Tox21_200356, viability, 1 nM T3 present, 24 h) is more than 90 µM. `CCN(CC)c1cccc(O)c1` [3-Diethylaminophenol]: the CC50 at 24 h (AC50 (uM) modified / 1000) is more than 90 µM.

`OCC(CO)n1cnc(-c2ccc(F)cc2)c1-c1ccnc(Oc2ccccc2)n1` [SB281832] showed a CC50 at 24 h (AC50 (uM) modified / 1000) of more than 90 µM. The same measure, in the same setting: the value for `O=C1CC(=O)NC(=O)N1` [Barbituric acid] was more than 90 µM. For `O=C1NCCN1CCO` [Hydroxyethyl imidazolidinone], under “AC50 (uM) modified / 1000”, the 50% cytotoxic concentration (CC50) at 24 h was more than 100 µM. Still for that read-out and setting: the same measure for `CN(C/C=C/c1ccccc1)Cc1cccc2ccccc12` [Naftifine hydrochloride]: 25 µM; for `Cc1cnc(C2=NC(=O)C(C)(C(C)C)N2)c(C(=O)O)c1` (centres unmarked) [Imazapic]: more than 90 µM; for `CC(=O)Nc1ncc([N+](=O)[O-])s1` [Nithiamide]: more than 50 µM. As to `BrCC(Br)C1CCC(Br)C(Br)C1` (centres unmarked) [1,2-Dibromo-4-(1,2-dibromoethyl)cyclohexane], for the setting “AC50 (uM) modified / 1000”, the midpoint of cytotoxicity, the CC50 at 24 h, lay at 55.8 µM. With `COc1ccc2c(c1OC)C(=O)O[C@@H]2[C@H]1c2cc3c(cc2CCN1C)OCO3` [Hydrastine], the CC50 at 24 h (AC50 (uM) modified / 1000, Tox21_110001=Tox21_200686, viability, 1 nM T3 present, 24 h) stood at 6.92 µM. `CCOC(=O)c1cc(-c2ccccc2)nc2ccc(C)cc12` [Neocinchophen]: for the setting “AC50 (uM) modified / 1000”, it took 44.6 µM to reach half-maximal cytotoxicity (CC50 at 24 h). Under “AC50 (uM) modified / 1000”, `NS(=O)(=O)c1ccc(C(=O)O)cc1` [Carzenide] showed a CC50 at 24 h of more than 50 µM.

For `C=C(C#N)CCC#N` [2-Methylenepentanedinitrile], the half-maximal cytotoxic concentration (CC50) at 24 h (AC50 (uM) modified / 1000) is more than 90 µM. Same read-out and setting: the value for `CS(=O)(=O)c1ccc(C2=C(c3ccccc3)C(=O)OC2)cc1` [Rofecoxib] was more than 50 µM.

`C=CC(=O)OCCO` [2-Hydroxyethyl acrylate] registered a CC50 at 24 h (AC50 (uM) modified / 1000, Tox21_110001=Tox21_201430, viability, 1 nM T3 present, 24 h) of more than 90 µM. `COc1ccc(C[C@@H](C)NC[C@H](O)c2ccc(O)c(NC=O)c2)cc1` [Formoterol hemifumarate]: where the note is “AC50 (uM) modified / 1000”, the cytotoxic concentration (CC50) at 24 h is more than 50 µM.

The compound `Cc1ccccc1OCC(O)CNCCOc1ccc(C(N)=O)cc1` (centres unmarked) [Tolamolol] gave a CC50 at 24 h (AC50 (uM) modified / 1000) of 13.4 µM. Same read-out and setting: the value for `C#C[C@]1(O)CC[C@H]2[C@@H]3CCC4=CC(=O)CCC4=C3C=C[C@@]21CC` [Gestrinone] was more than 50 µM; that for `CCCCC(CC)COC(=O)c1ccc(N(C)C)cc1` (centres unmarked) [2-Ethylhexyl 4-(dimethylamino)benzoate] was more than 90 µM. Still for that read-out and setting: the value for `Cc1cc(C)cc(C)c1` [1,3,5-Trimethylbenzene] was more than 90 µM.

Turning to `CN(C)c1ccncc1` [N,N-dimethylpyridin-4-amine], the cytotoxic concentration (CC50) at 24 h (AC50 (uM) modified / 1000) is more than 90 µM. As for `C[C@]12CCC(=O)C=C1[C@@H]1C[C@@H]1[C@H]1[C@@H]3[C@@H]4C[C@@H]4[C@@]4(CCC(=O)O4)[C@@]3(C)CC[C@@H]12` [Drospirenone], for the setting “AC50 (uM) modified / 1000”, the CC50 at 24 h was more than 50 µM.

As to `C=C(C)C(=O)OCCN(CC)CC` [2-(Diethylamino)ethyl methacrylate], the CC50 at 24 h (AC50 (uM) modified / 1000) is more than 90 µM. In turn, `CCc1cn([C@H]2C[C@H](O)[C@@H](CO)O2)c(=O)[nH]c1=O` [Edoxudine] showed a CC50 at 24 h (AC50 (uM) modified / 1000) of more than 50 µM.

The term CC50 denotes the concentration giving 50% cytotoxicity.

The values are drawn from publication PMC6792352, “Limited Chemical Structural Diversity Found to Modulate Thyroid Hormone Receptor in the Tox21 Chemical Library” (Environmental Health Perspectives, 2019).
